Experimental findings from PubChem BioAssay AID328 (DTP/NCI, 2004) are described below.

The test system of the assay is BDF1 mice, P388 leukemia ip, median survival T/C. The assay is described as follows: NCI In Vivo Anticancer Drug Screen. Data for tumor model P388 Leukemia (intraperitoneal) in B6D2F1 (BDF1) mice. The conditions noted are these: endpoint: median survival time, higher = longer survival. A digest of the protocol:
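Steps: implant the tumour, treat one group with compound and another with vehicle, record survival, then divide treated by control.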

Setting [1] is: dose: 50.0 mg/kg/injection, schedule: Q04DX003 (ip), vehicle: saline.
Setting [2] is: dose: 100.0 mg/kg/injection, schedule: Q04DX003 (ip), vehicle: saline.
The mark [3] stands for this setting: dose: 25.0 mg/kg/injection, schedule: Q04DX003 (ip), vehicle: Klucel (hydroxypropylcellulose) (HPC).
[4] abbreviates: dose: 50.0 mg/kg/injection, schedule: Q04DX003 (ip), vehicle: Klucel (hydroxypropylcellulose) (HPC).
Where [5] appears, read: dose: 100.0 mg/kg/injection, schedule: Q01DX001 (ip), vehicle: Klucel (hydroxypropylcellulose) (HPC).
[6] abbreviates: dose: 100.0 mg/kg/injection, schedule: Q04DX003 (ip), vehicle: Klucel (hydroxypropylcellulose) (HPC).
Where [7] appears, read: dose: 200.0 mg/kg/injection, schedule: Q01DX001 (ip), vehicle: Klucel (hydroxypropylcellulose) (HPC).
Where [8] appears, read: dose: 200.0 mg/kg/injection, schedule: Q04DX003 (ip), vehicle: Klucel (hydroxypropylcellulose) (HPC).
Setting [9] is: dose: 400.0 mg/kg/injection, schedule: Q01DX001 (ip), vehicle: Klucel (hydroxypropylcellulose) (HPC).
The mark [10] stands for this setting: dose: 400.0 mg/kg/injection, schedule: Q04DX003 (ip), vehicle: Klucel (hydroxypropylcellulose) (HPC).
[11] abbreviates: dose: 50.0 mg/kg/injection, schedule: Q01DX009 (ip), vehicle: saline with Tween-80.
The mark [12] stands for this setting: dose: 100.0 mg/kg/injection, schedule: Q01DX009 (ip), vehicle: saline with Tween-80.
Where [13] appears, read: dose: 200.0 mg/kg/injection, schedule: Q01DX009 (ip), vehicle: saline with Tween-80.
Setting [14] is: dose: 100.0 mg/kg/injection, schedule: Q01DX001 (ip), vehicle: saline with Tween-80.
Setting [15] is: dose: 200.0 mg/kg/injection, schedule: Q01DX001 (ip), vehicle: saline with Tween-80.
Setting [16] is: dose: 100.0 mg/kg/injection, schedule: Q04DX003 (ip), vehicle: saline with Tween-80.
The mark [17] stands for this setting: dose: 200.0 mg/kg/injection, schedule: Q04DX003 (ip), vehicle: saline with Tween-80.
Setting [18] is: dose: 400.0 mg/kg/injection, schedule: Q01DX009 (ip), vehicle: saline with Tween-80.
[19] abbreviates: dose: 400.0 mg/kg/injection, schedule: Q04DX003 (ip), vehicle: saline with Tween-80.

Where “and” joins values, the source holds several entries; their conditions need not be identical. Equal values may be shown once. Toxic doses and inconclusive results are not listed.

Consider `CCCCNC(C)(C)CS`, for which the T/C by setting is: (dose: 3.12 mg/kg/injection, schedule: Q04DX003 (ip), vehicle: saline) 106 % of control; (dose: 6.25 mg/kg/injection, schedule: Q04DX003 (ip), vehicle: saline) 115 % of control; (dose: 12.5 mg/kg/injection, schedule: Q01DX009 (ip), vehicle: saline) 116 % of control; (dose: 12.5 mg/kg/injection, schedule: Q04DX003 (ip), vehicle: saline) 108 % of control; (dose: 25.0 mg/kg/injection, schedule: Q01DX009 (ip), vehicle: saline) 109 % of control; (dose: 25.0 mg/kg/injection, schedule: Q04DX003 (ip), vehicle: saline) 97 % of control. The T/C by setting is: under setting [1], 101 % of control; under setting [2], 92 % of control.
On to `COc1ccc(C=O)c(Cl)c1OC`, for which the T/C was 90 % of control (dose: 12.0 mg/kg/injection, schedule: Q04DX003 (ip), vehicle: Klucel (hydroxypropylcellulose) (HPC)); 100 % of control under setting [3]; 95 % of control under setting [4]; 113 % of control under setting [5]; 109 % of control under setting [6]; 109 % of control under setting [7]. Further, the T/C runs as follows: under setting [8], 104 % of control; under setting [9], 113 % of control.
For `Cc1ccc(NC(=S)NC(=O)c2ccco2)cc1Cl`, the T/C was 100 % of control under setting [6], 120 % of control under setting [8] and 90 % of control under setting [10].
With `CCCCOCN1COCC1(C)C`, the T/C is 100 % of control under setting [1] and 105 % of control under setting [2].
As to `CCOC(=O)c1ccc(C=O)[nH]1`, the T/C was 101 % of control under setting [11], 99 % of control under setting [12] and 99 % of control under setting [13].
As for `CC1=CCC(CC(N)=O)C1(C)C` (stereo unspecified), the T/C is, setting by setting: under setting [14], 105 % of control; under setting [15], 103 % of control; (dose: 400.0 mg/kg/injection, schedule: Q01DX001 (ip), vehicle: saline with Tween-80) 92 % of control.
With `Cn1c(=O)c2nc(-c3ccc(Cl)cc3)c(-c3ccc(Cl)cc3)nc2n(C)c1=O`, the T/C runs as follows: under setting [14], 110 % of control; under setting [15], 112 % of control.
For `CC(=O)Nc1ccc(/C=C/C(=O)c2ccc(Cl)cc2)cc1`, the T/C under setting [12] is 100 % of control; the T/C under setting [16] was 104 % of control; the T/C under setting [13] was 100 % of control; the T/C under setting [17] was 100 % of control; the T/C under setting [18] was 100 % of control; the T/C under setting [19] is 90 % of control.
With `CC1C=CC(C)C(C(=O)c2ccccc2)C1C(=O)c1ccccc1` (stereo unspecified), the T/C under setting [6] is 104 % of control, the T/C under setting [8] is 100 % of control and the T/C under setting [10] is 100 % of control.
For the compound `Cc1c(Cl)cnc(N)c1Cl` (tested in a mixture with another compound), the T/C by setting is: under setting [11], 96 % of control; under setting [12], 156 % of control; under setting [13], 105 % of control.
Regarding `O=C(NC1=NN(c2ccccc2)C(=O)C1)Nc1ccccc1`, the T/C (dose: 87.5 mg/kg/injection, schedule: Q01DX009 (ip), vehicle: saline with Tween-80) is 110 % of control and the T/C (dose: 175.0 mg/kg/injection, schedule: Q01DX009 (ip), vehicle: saline with Tween-80) was 103 % of control.
Consider `CCC[CH2][Sn]([Cl])([CH2]CCC)[S]C(=S)NCCNC(=S)[S][Sn]([Cl])([CH2]CCC)[CH2]CCC`, for which the T/C (dose: 1.56 mg/kg/injection, schedule: Q04DX003 (ip), vehicle: Klucel (hydroxypropylcellulose) (HPC)) is 110 % of control; the T/C (dose: 3.12 mg/kg/injection, schedule: Q01DX009 (ip), vehicle: Klucel (hydroxypropylcellulose) (HPC)) was 105 % of control; the T/C (dose: 3.13 mg/kg/injection, schedule: Q04DX003 (ip), vehicle: Klucel (hydroxypropylcellulose) (HPC)) was 124 % of control; the T/C (dose: 6.25 mg/kg/injection, schedule: Q01DX009 (ip), vehicle: Klucel (hydroxypropylcellulose) (HPC)) is 153 % of control; the T/C (dose: 6.25 mg/kg/injection, schedule: Q04DX003 (ip), vehicle: Klucel (hydroxypropylcellulose) (HPC)) is 154 % of control; the T/C (dose: 12.5 mg/kg/injection, schedule: Q01DX009 (ip), vehicle: Klucel (hydroxypropylcellulose) (HPC)) was 156 % of control and 158 % of control. For the same compound, the T/C runs as follows: (dose: 12.5 mg/kg/injection, schedule: Q04DX003 (ip), vehicle: Klucel (hydroxypropylcellulose) (HPC)) 100 % of control and 105 % of control; (dose: 25.0 mg/kg/injection, schedule: Q01DX009 (ip), vehicle: Klucel (hydroxypropylcellulose) (HPC)) 194 % of control.
With `COC(=O)[C@@H](C)[C@@H](O)[C@@H](C)N`, the T/C is 101 % of control under setting [16], 99 % of control under setting [17] and 103 % of control under setting [19].
For `C(=N\Nc1nnn(Cc2ccccc2)n1)/c1ccccc1` the same measures were 90 % of control, 95 % of control and 95 % of control.
As for `O=S1(=O)C=C(c2ccccc2)C1`, the T/C is, setting by setting: under setting [11], 108 % of control; under setting [12], 107 % of control.
`Cc1ccc(C)c(CN(C)C)c1O`: the T/C by setting is: under setting [3], 118 % of control; under setting [4], 100 % of control; under setting [6], 100 % of control.
Regarding `COc1ccccc1NC(=O)Oc1ccc(-c2ccccc2)cc1Br`, the T/C is, setting by setting: under setting [6], 95 % of control; under setting [8], 87 % of control; under setting [10], 91 % of control.
On to `COC(OC)c1[nH]c(=S)[nH]c(=O)c1Cc1cc(C)ccc1C`, for which the T/C is 95 % of control under setting [4]; 104 % of control under setting [5]; 100 % of control under setting [6]; 104 % of control under setting [7]; 95 % of control under setting [8]; 109 % of control under setting [9].
As to `CC(=O)Nc1ccc2c(O)cc(S(=O)(=O)O)cc2c1`, the T/C was 107 % of control (dose: 100.0 mg/kg/injection, schedule: Q01DX009 (ip), vehicle: saline); 98 % of control (dose: 200.0 mg/kg/injection, schedule: Q01DX009 (ip), vehicle: saline); 114 % of control (dose: 400.0 mg/kg/injection, schedule: Q01DX009 (ip), vehicle: saline).
With `CCCCCCCCO/N=C\c1c2c(O)c3c(O)c(C)c4c(c3c1O)C(=O)C(C)(O/C=C\C(OC)C(C)C(OC(C)=O)C(C)C(O)C(C)C(O)C(C)/C=C\C=C(\C)C(=O)N2)O4` (stereo unspecified), the T/C by setting is: (dose: 100.0 mg/kg/injection, schedule: Q01DX009 (ip), vehicle: Klucel (hydroxypropylcellulose) (HPC)) 100 % of control; (dose: 200.0 mg/kg/injection, schedule: Q01DX009 (ip), vehicle: Klucel (hydroxypropylcellulose) (HPC)) 100 % of control.
For `CCOC(=O)CSc1cc(C)c2c(N)c(C(=O)OCC)sc2n1`, the T/C (dose: 50.0 mg/kg/injection, schedule: Q01DX005 (ip), vehicle: saline with Tween-80) was 88 % of control; the T/C (dose: 100.0 mg/kg/injection, schedule: Q01DX005 (ip), vehicle: saline with Tween-80) was 91 % of control; the T/C (dose: 200.0 mg/kg/injection, schedule: Q01DX005 (ip), vehicle: saline with Tween-80) is 89 % of control.
Regarding `CC(=O)OC1C(C=C(C)C)OC2CC3(C)C4=C(CCC3(C)C2C1C)C1(C)CCC(O)C(C)(C)C1CC4` (stereo unspecified), the T/C is 90 % of control (dose: 50.0 mg/kg/injection, schedule: Q01DX010 (sc), vehicle: steriod suspending solution); 90 % of control (dose: 100.0 mg/kg/injection, schedule: Q01DX010 (sc), vehicle: steriod suspending solution); 90 % of control (dose: 200.0 mg/kg/injection, schedule: Q01DX010 (sc), vehicle: steriod suspending solution); 86 % of control (dose: 400.0 mg/kg/injection, schedule: Q01DX010 (sc), vehicle: steriod suspending solution).
Consider `S=c1[nH]nc2ccccn12`, for which the T/C is 102 % of control under setting [11], 100 % of control under setting [12] and 102 % of control under setting [13].
With `Nc1ncnc2c1c(C(=O)O)cn2C1OC(CO)C(O)C1O` (stereo unspecified), the T/C is, setting by setting: (dose: 66.0 mg/kg/injection, schedule: Q04DX003 (ip), vehicle: saline with Tween-80) 160 % of control; under setting [16], 150 % of control and 170 % of control.
Take `O=C1c2ccccc2C(=O)N1N1C(=O)c2ccccc2C1=O`: the T/C is 100 % of control under setting [12], 90 % of control under setting [13] and 100 % of control under setting [18].
